Measurements as given in patent EP0694535A1, “Non-peptidyl tachykinin receptor antagonists” (ELI LILLY AND COMPANY, priority 1994, dated 1996).

Tests used:
NK-1 receptor = target: T1, NK-1 receptor (Homo sapiens, UniProt P25103); assay: NK-1 Receptor Binding Assay (competition with labeled substance P on IM9 cells); details: for inhibition at 10 µM: inhibition of substance P binding to the NK-1 receptor, read-out: Percent Inhibition; for IC50: concentration which inhibits fifty percent of the binding of substance P, 20 pM labeled substance P, 45 minutes at 4°C
T1 construct: an aliquot of IM9 cells; endogenous in cells; host or cells: IM9 cells (whole cells)
Method: Radioreceptor binding assays were performed using a derivative of a previously published protocol. D.G. Payan, et al., Journal of Immunology, 133:3260-3265 (1984). In this assay an aliquot of IM9 cells (1 x 10⁶ cells/tube in […] medium supplemented with 10% fetal calf serum) was incubated with 20 pM […] substance P in the presence of increasing competitor concentrations for 45 minutes at 4°C.
The IM9 cell line is a well-characterized cell line which is readily available to the public. See. e.g., Annals of the New York Academy of Science, 190: 221-234 (1972); Nature (London), 251:443-444 (1974); Proceedings of the National Academy of Sciences (USA), 71:84-88 (1974). These cells were routinely cultured in RPMI 1640 supplemented with 50 µg/ml gentamicin sulfate and 10% fetal calf serum.
The reaction was terminated by filtration through a glass fiber filter harvesting system using filters previously soaked for 20 minutes in 0.1% polyethylenimine. Specific binding of labeled substance P was determined in the presence of 20 nM unlabeled ligand.
Column 1 provides the example number of the test antagonist compound. The next columns detail the substitution patterns of the test compound.

human NK-2 receptor = target: T2, human NK-2 receptor (Homo sapiens, UniProt P21452); assay: NK-2 Receptor Binding Assay (CHO-hNK-2R membranes, iodohistidyl-neurokinin A); details: for inhibition at 10 µM: inhibition of neurokinin A binding at ten micromolar, read-out: Percent Inhibition @ 10 μM; for IC50: values in parentheses, amount necessary to inhibit fifty percent of the binding of neurokinin A
T2 construct: expressed in transfected cells; host or cells: CHO-hNK-2R cells (CHO-derived), membrane preparation
T2 sequence (P21452 1-398): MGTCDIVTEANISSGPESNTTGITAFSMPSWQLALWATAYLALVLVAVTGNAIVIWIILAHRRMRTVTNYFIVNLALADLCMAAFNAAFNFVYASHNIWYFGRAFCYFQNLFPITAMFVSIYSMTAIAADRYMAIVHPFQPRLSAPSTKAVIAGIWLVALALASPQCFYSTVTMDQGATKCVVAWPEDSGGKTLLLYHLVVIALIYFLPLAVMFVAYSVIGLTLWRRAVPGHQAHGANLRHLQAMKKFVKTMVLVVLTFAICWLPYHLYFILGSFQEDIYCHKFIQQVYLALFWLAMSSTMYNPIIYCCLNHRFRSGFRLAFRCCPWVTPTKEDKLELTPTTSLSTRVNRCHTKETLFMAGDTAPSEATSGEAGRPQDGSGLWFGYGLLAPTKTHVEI
Method: The CHO-hNK-2R cells, a CHO-derived cell line transformed with the human NK-2 receptor, expressing about 400,000 such receptors per cell, were grown in 75 cm flasks or roller bottles in minimal essential medium (alpha modification) with 10% fetal bovine serum. The gene sequence of the human NK-2 receptor is given in N.P. Gerard, et al., Journal of Biological Chemistry, 265:20455-20462 (1990).
For preparation of membranes, 30 confluent roller bottle cultures were dissociated by washing each roller bottle with 10 ml of Dulbecco's phosphate buffered saline (PBS) without calcium and magnesium, followed by addition of 10 ml of enzyme-free cell dissociation solution (PBS-based, from Specialty Media, Inc.). After an additional 15 minutes, the dissociated cells were pooled and centrifuged at 1,000 RPM for 10 minutes in a clinical centrifuge. Membranes were prepared by homogenization of the cell pellets in 300 ml 50 mM Tris buffer, pH 7.4 with a Tekmar® homogenizer for 10-15 seconds, followed by centrifugation at 12,000 RPM (20,000 x g) for 30 minutes using a Beckman JA-14® rotor. The pellets were washed once using the above procedure. and the final pellets were resuspended in 100-120 ml 50 mM Tris buffer, pH 7.4, and 4 ml aliquots stored frozen at -70 °C. The protein concentration of this preparation was 2 mg/ml.
For the receptor binding assay, one 4-ml aliquot of the CHO-hNK-2R membrane preparation was suspended in 40 ml of assay buffer containing 50 mM Tris, pH 7.4, 3 mM manganese chloride, 0.02% bovine serum albumin (BSA) and 4 µg/ml chymostatin. A 200 µl volume of the homogenate (40 µg protein) was used per sample. The radioactive ligand was [[…]]iodohistidyl-neurokinin A (New England Nuclear, NEX-252), 2200 Ci/mmol. The ligand was prepared in assay buffer at 20 nCi per 100 µl; the final concentration in the assay was 20 pM. Non-specific binding was determined using 1 µM eledoisin. Ten concentrations of eledoisin from 0.1 to 1000 nM were used for a standard concentration-response curve.
All samples and standards were added to the incubation in 10 µl dimethylsulfoxide (DMSO) for screening (single dose) or in 5 µl DMSO for IC₅₀ determinations. The order of additions for incubation was 190 or 195 µl assay buffer, 200 µl homogenate, 10 or 5 µl sample in DMSO, 100 µl radioactive ligand. The samples were incubated 1 hr at room temperature and then filtered on a cell harvester through filters which had been presoaked for two hours in 50 mM Tris buffer, pH 7.7, containing 0.5% BSA. The filter was washed 3 times with approximately 3 ml of cold 50 mM Tris buffer, pH 7.7. The filter circles were then punched into 12 x 75 mm polystyrene tubes and counted in a gamma counter.
Table II, infra, provides a representative sample of the effectiveness as NK-2 receptor antagonists of many of the compounds of Formula I. The first column provides the Example number of the compound tested. The second column provides either the percent inhibition of neurokinin A binding when the compound is present in a ten micromolar concentration or the amount of compound (in micromolar amounts) necessary to inhibit fifty percent of the binding of neurokinin A. Those values which represent IC₅₀ values are designated by parentheses.

T1 sequence (P25103 whole entry): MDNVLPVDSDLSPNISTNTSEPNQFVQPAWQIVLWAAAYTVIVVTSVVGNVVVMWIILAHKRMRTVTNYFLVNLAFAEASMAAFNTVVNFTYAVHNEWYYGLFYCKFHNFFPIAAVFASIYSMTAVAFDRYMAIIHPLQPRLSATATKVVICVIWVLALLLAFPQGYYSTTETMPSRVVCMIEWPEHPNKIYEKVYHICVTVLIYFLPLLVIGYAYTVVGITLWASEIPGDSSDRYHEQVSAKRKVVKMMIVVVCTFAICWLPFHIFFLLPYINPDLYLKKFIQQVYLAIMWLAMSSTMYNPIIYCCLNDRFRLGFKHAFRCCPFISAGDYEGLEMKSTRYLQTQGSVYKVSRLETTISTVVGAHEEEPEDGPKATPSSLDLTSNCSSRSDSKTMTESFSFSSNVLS

Structure (SMILES)	inhibition at 10 µM (human NK-2 receptor) [%]	also measured
COc1cc(-c2nc3ccccc3n2Cc2ccccc2Cl)cc(OC)c1OC [Example 41, 1-(2-chlorobenzyl)-2-(3,4,5-trimethoxyphenyl)-benzimidazole]	73.7	IC50 (NK-1 receptor): 0.815 µM
Cc1cccc(-c2nc3ccc(OCCN4CCCC4)cc3n2Cc2ccccc2)c1 [Example 86, 1-benzyl-2-(3-methylphenyl)-6-[2-(1-pyrrolidinyl)ethoxy]benzimidazole]	48.5	
Cc1cccc(-c2nc3ccc(OCCN(C)C)cc3n2Cc2ccccc2)c1 [Example 88, 1-benzyl-2-(3-methylphenyl)-6-[2-(N,N-dimethylamino)ethoxy]benzimidazole]	31.6	
Cc1cccc(-c2nc3ccc(OCCN(Cc4ccccc4)Cc4ccccc4)cc3n2Cc2ccccc2)c1 [Example 89, 1-benzyl-2-(3-methylphenyl)-6-[2-(N,N-dibenzylamino)ethoxy]benzimidazole]	24.5	
Cc1cccc(-c2nc3ccc(OCCN(C(C)C)C(C)C)cc3n2Cc2ccccc2)c1 [Example 91, 1-benzyl-2-(3-methylphenyl)-6-[2-(N,N-isopropylamino)ethoxy]benzimidazole]	60.7	
Cc1cccc(-c2nc3ccc(OCCN4CCCCCC4)cc3n2Cc2ccccc2)c1 [Example 92, 1-benzyl-2-(3-methylphenyl)-6-[2-(hexamethyleneimin-1-yl)ethoxy]benzimidazole]	82.5	
CCN(CC)CCOc1ccc2nc(-c3cccc(C)c3)n(Cc3ccccc3)c2c1 [Example 93, 1-benzyl-2-(3-methylphenyl)-6-[2-(N,N-diethylamino)ethoxy]benzimidazole]	42	
Cc1cccc(-c2nc3ccc(OCCCN4CCCCC4)cc3n2Cc2ccccc2)c1 [Example 95, 1-benzyl-2-(3-methylphenyl)-6-[3-(piperdin-1-yl)propoxy]benzimidazole]	80.4	
Cc1cccc(-c2nc3ccc(OCC(C)N(C)C)cc3n2Cc2ccccc2)c1 (stereo not shown) [Example 96, 1-benzyl-2-(3-methylphenyl)-6-[2-(N,N-dimethylamino)propoxy]-benzimidazole]	34	
Cc1cccc(-c2nc3ccc(OCCCCl)cc3n2Cc2ccccc2)c1 [Example 97, 1-benzyl-2-(3-methylphenyl)-6-(3-chloropropoxy)-benzimidazole]	64.4	
Cc1cccc(-c2nc3ccc(OCCCl)cc3n2Cc2ccccc2)c1 [Example 98, 1-benzyl-2-(3-methylphenyl)-6-(2-chloroethoxy)-benzimidazole]		IC50 (human NK-2 receptor): 7.24 µM
Cc1cccc(-c2nc3ccc(OCCCN4CCOCC4)cc3n2Cc2ccccc2)c1 [Example 99, 1-benzyl-2-(3-methylphenyl)-6-[3-(morpholin-4-yl)propoxy)benzimidazole]		IC50 (human NK-2 receptor): 3.08 µM
Cc1cccc(-c2nc3ccc(OCCCN4CCCC4)cc3n2Cc2ccccc2)c1 [Example 100, 1-benzyl-2-(3-methylphenyl)-6-[3-(pyrrolidin-1-yl)propoxy)benzimidazole]		IC50 (human NK-2 receptor): 6.8 µM
Cc1cccc(-c2nc3ccc(OCCCN4CCCCCC4)cc3n2Cc2ccccc2)c1 [Example 101, 1-benzyl-2-(3-methylphenyl)-6-[3-(hexamethyleneimin-1-yl)propoxy)benzimidazole]		IC50 (human NK-2 receptor): 1.04 µM
COc1cc(-c2nc3ccc(O)cc3n2Cc2ccccc2C(F)(F)F)cc(OC)c1OC [Example 104, 1-(2-trifluoromethylbenzyl)-2-(3,4,5-trimethoxyphenyl)-6-hydroxybenzimidazole]	39.3	
COc1cc(-c2nc3ccc(OCCN4CCCCC4)cc3n2Cc2ccccc2C(F)(F)F)cc(OC)c1OC [Example 105, 1-(2-trifluoromethylbenzyl)-2-(3,4,5-trimethoxyphenyl)-6-[2-(piperidin-1-yl)ethoxy]benzimidazole]		IC50 (human NK-2 receptor): 5.17 µM
COc1cc(-c2nc3ccc(OCCN4CCCCC4)cc3n2Cc2ccccc2Br)cc(OC)c1OC [Example 115, 1-(2-bromobenzyl)-2-(3,4,5-trimethoxyphenyl)-6-[2-(piperidin-1-yl)ethoxy]benzimidazole]		IC50 (human NK-2 receptor): 4.29 µM

Now from value to compound, other results behind:

inhibition at 10 µM (human NK-2 receptor) [%]	Structure (SMILES)	also measured
55	COc1cc(-c2nc3ccccc3n2Cc2cccc(Cl)c2)cc(OC)c1OC [Example 40, 1-(3-chlorobenzyl)-2-(3,4,5-trimethoxyphenyl)-benzimidazole]	inhibition at 10 µM (NK-1 receptor): 77%
2.6	COc1cc(-c2nc3ccccc3n2Cc2ccc(Cl)cc2)cc(OC)c1OC [Example 42, 1-(4-chlorobenzyl)-2-(3,4,5-trimethoxyphenyl)-benzimidazole]	inhibition at 10 µM (NK-1 receptor): 61%
68.4	COc1cc(-c2nc3ccccc3n2Cc2ccccc2C)cc(OC)c1OC [Example 43, 1-(2-methylbenzyl)-2-(3,4,5-trimethoxyphenyl)-benzimidazole]	IC50 (NK-1 receptor): 0.842 µM
52.9	COc1cc(-c2nc3ccccc3n2Cc2cccc(C)c2)cc(OC)c1OC [Example 44, 1-(3-methylbenzyl)-2-(3,4,5-trimethoxyphenyl)-benzimidazole]	IC50 (NK-1 receptor): 2.05 µM
81.9	Cc1cccc(-c2nc3ccc(OCCN4CCOCC4)cc3n2Cc2ccccc2)c1 [Example 87, 1-benzyl-2-(3-methylphenyl)-6-[2-(4-morpholinyl)ethoxy]benzimidazole]	
34	CCN(CCOc1ccc2nc(-c3cccc(C)c3)n(Cc3ccccc3)c2c1)c1ccccc1 [Example 90, 1-benzyl-2-(3-methylphenyl)-6-[2-(N-phenyl-N-ethylamino)ethoxy]benzimidazole]	
38.4	Cc1cccc(-c2nc3ccc(OCCCN(C)C)cc3n2Cc2ccccc2)c1 [Example 94, 1-benzyl-2-(3-methylphenyl)-6-[3-(N,N-dimethylamino)propoxy]benzimidazole]	
57.4	COc1cc(-c2nc3ccc(O)cc3n2Cc2ccccc2Br)cc(OC)c1OC [Example 114, 1-(2-bromobenzyl)-2-(3,4,5-trimethoxyphenyl)-6-hydroxybenzimidazole]	
55.9	Cc1cccc(-c2nc3ccc(O)cc3n2Cc2ccccc2C(F)(F)F)c1 [Example 120, 1-(2-trifluoromethylbenzyl)-2-(3-methylphenyl)-6-hydroxybenzimidazole]	
